According to patent US10597388B2, “Pyridazinone herbicides” (FMC CORPORATION, priority 2014, dated 2020):

Assays:
Format in all cases: in vivo
[1] = system: barnyardgrass (Echinochloa crus-galli); assay: Test A greenhouse herbicide test, pre- and postemergence
Outline: (§1)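 Seeds sown in loam–sand blend got a preemergence directed soil spray of compound in non-phytotoxic solvent with surfactant. Postemergence treatment was given at 2–10 cm, one- to two-leaf stage. After ~10 d in greenhouse, injury was rated visually vs untreated controls, 0 (no effect) to 100 (complete control).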

[2] = system: corn (Zea mays); assay: as above; settings: Postemergence
Outline: as §1

[3] = system: foxtail, giant (giant foxtail, Setaria faberii); assay: as above
Outline: as §1

[4] = system: kochia (Kochia scoparia); assay: as above
Outline: as §1

[5] = system: pigweed (Amaranthus retroflexus); assay: as above
Outline: as §1

[6] = system: ragweed (common ragweed, Ambrosia elatior); assay: as above
Outline: as §1

[7] = system: ryegrass, Italian (Italian ryegrass, Lolium multiflorum); assay: as above
Outline: as §1

[8] = system: wheat (Triticum aestivum); assay: as above; settings: Postemergence
Outline: as §1

[9] = system: blackgrass (Alopecurus myosuroides); assay: Test A greenhouse herbicide test, postemergence
Outline: (§2)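 Greenhouse postemergence test: formulated chemicals sprayed on one- to two-leaf plants (2 to 10 cm), grown in loam soil blended with sand. Injury assessed visually about 10 d later against untreated controls, scored 0 (no effect) to 100 (complete control).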

[10] = system: galium (catchweed bedstraw, Galium aparine); assay: Test A greenhouse herbicide test, postemergence
Outline: as §2

[11] = system: barnyardgrass (Echinochloa crus-galli); assay: Test B flooded paddy test; settings: 250 g ai/ha, Flood; visual rating on scale of 0 to 100 where 0 is no effect and 100 is complete control; 13 to 15 d after treatment
Outline: (§3)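 Plants at the 2-leaf stage were flooded to 3 cm above soil, and test compounds were applied directly into the paddy water, which was held at that depth throughout. After 13 to 15 d in a greenhouse, injury was rated visually against untreated controls on a 0–100 scale (0 no effect, 100 complete control).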

[12] = system: ducksalad (Heteranthera limosa); assay: Test B flooded paddy test; settings: 250 g ai/ha, Flood; visual rating on scale of 0 to 100 where 0 is no effect and 100 is complete control; 13 to 15 d after treatment
Outline: as §3

[13] = system: rice (Oryza sativa); assay: Test B flooded paddy test; settings: 250 g ai/ha, Flood; visual rating on scale of 0 to 100 where 0 is no effect and 100 is complete control; 13 to 15 d after treatment
Outline: as §3

[14] = system: sedge, umbrella (small-flower umbrella sedge, Cyperus difformis); assay: Test B flooded paddy test; settings: 250 g ai/ha, Flood; visual rating on scale of 0 to 100 where 0 is no effect and 100 is complete control; 13 to 15 d after treatment
Outline: as §3

[15] = Postemergence, 125 g ai/ha, 0 to 100 scale where 0 is no effect and 100 is complete control
[16] = Postemergence, 500 g ai/ha, visual rating after approx. 10 d, 0 to 100 scale (0 no effect, 100 complete control)
[17] = Preemergence, 125 g ai/ha, 0 to 100 scale where 0 is no effect and 100 is complete control
[18] = Preemergence, 500 g ai/ha, 0 to 100 scale where 0 is no effect and 100 is complete control
[19] = 125 g ai/ha, 0 to 100 scale where 0 is no effect and 100 is complete control
[20] = 500 g ai/ha, visual rating after approx. 10 d, 0 to 100 scale (0 no effect, 100 complete control)
[21] = Postemergence, 500 g ai/ha, 0 to 100 scale, 0 is no effect, 100 is complete control
[22] = Preemergence, 500 g ai/ha, 0 to 100 scale, 0 no effect, 100 complete control
[23] = 500 g ai/ha, 0 to 100 scale, 0 is no effect, 100 is complete control

## COC(=O)Oc1c(OC)nn(C)c(=O)c1-c1c(C)sc2ccc(Cl)cc12 [Compound 112]
[1]; [15]
  Plant response rating, Barnyardgrass: 20
[1]; [16]
  Plant response rating, Barnyardgrass: 20
[1]; [17]
  Barnyardgrass plant response rating: 10
[1]; [18]
  Plant response rating, Barnyardgrass: 20
[2]; [19]
  Plant response rating, Corn: 0
[2]; [20]
  Plant response rating, Corn: 30
[3]; [15]
  Plant response rating, Foxtail, Giant: 20
[3]; [16]
  Plant response rating, Foxtail, Giant: 50
[3]; [17]
  Foxtail, Giant plant response rating: 50
[3]; [18]
  Plant response rating, Foxtail, Giant: 60
[4]; [15]
  Plant response rating, Kochia: 20
[4]; [16]
  Plant response rating, Kochia: 30
[4]; [17]
  Kochia plant response rating: 20
[4]; [18]
  Plant response rating, Kochia: 80
[5]; [15]
  Plant response rating, Pigweed: 20
[5]; [16]
  Plant response rating, Pigweed: 30
[5]; [17]
  Pigweed plant response rating: 90
[5]; [18]
  Plant response rating, Pigweed: 100
[6]; [15]
  Plant response rating, Ragweed: 60
[6]; [16]
  Plant response rating, Ragweed: 80
[6]; [17]
  Ragweed plant response rating: 40
[6]; [18]
  Plant response rating, Ragweed: 80
[7]; [15]
  Plant response rating, Ryegrass, Italian: 80
[7]; [16]
  Plant response rating, Ryegrass, Italian: 100
[7]; [17]
  Ryegrass, Italian plant response rating: 90
[7]; [18]
  Plant response rating, Ryegrass, Italian: 100
[8]; [19]
  Plant response rating, Wheat: 20
[8]; [20]
  Plant response rating, Wheat: 30
[9]; [19]
  Plant response rating, Blackgrass: 40
[9]; [20]
  Plant response rating, Blackgrass: 80
[10]; [19]
  Plant response rating, Galium: 70
[10]; [20]
  Plant response rating, Galium: 90
[11]
  Plant response rating, Barnyardgrass: 0
[12]
  Plant response rating, Ducksalad: 0
[13]
  Plant response rating, Rice: 0
[14]
  Plant response rating, Sedge, Umbrella: 0

## Cn1ncc(O)c(-c2cccc3ccccc23)c1=O [Compound 49]
[1]; [15]
  Plant response rating, Barnyardgrass: 0
[1]; [21]
  Barnyardgrass plant response rating: 20
[1]; [17]
  Barnyardgrass plant response rating: 0
[1]; [22]
  Plant response rating, Barnyardgrass: 0
[2]; [19]
  Plant response rating, Corn: 0
[2]; [23]
  Corn plant response rating: 0
[3]; [15]
  Plant response rating, Foxtail, Giant: 0
[3]; [21]
  Foxtail, Giant plant response rating: 20
[3]; [17]
  Foxtail, Giant plant response rating: 0
[3]; [22]
  Plant response rating, Foxtail, Giant: 10
[4]; [15]
  Plant response rating, Kochia: 0
[4]; [21]
  Kochia plant response rating: 10
[4]; [17]
  Kochia plant response rating: 0
[4]; [22]
  Plant response rating, Kochia: 0
[5]; [15]
  Plant response rating, Pigweed: 20
[5]; [21]
  Pigweed plant response rating: 40
[5]; [17]
  Pigweed plant response rating: 0
[5]; [22]
  Plant response rating, Pigweed: 40
[6]; [15]
  Plant response rating, Ragweed: 0
[6]; [21]
  Ragweed plant response rating: 10
[6]; [17]
  Ragweed plant response rating: 0
[6]; [22]
  Plant response rating, Ragweed: 10
[7]; [15]
  Plant response rating, Ryegrass, Italian: 30
[7]; [21]
  Ryegrass, Italian plant response rating: 50
[7]; [17]
  Ryegrass, Italian plant response rating: 0
[7]; [22]
  Plant response rating, Ryegrass, Italian: 30
[8]; [19]
  Plant response rating, Wheat: 0
[8]; [23]
  Wheat plant response rating: 0
[9]; [19]
  Plant response rating, Blackgrass: 10
[9]; [23]
  Blackgrass plant response rating: 30
[10]; [19]
  Plant response rating, Galium: 50
[10]; [23]
  Galium plant response rating: 80
[11]
  Plant response rating, Barnyardgrass: 0
[12]
  Plant response rating, Ducksalad: 0
[13]
  Plant response rating, Rice: 0
[14]
  Plant response rating, Sedge, Umbrella: 0
